Series [1] concerns feral hogs. Nature of the series: Vomiting after toxicant baits are consumed. Format: in vivo, Sus scrofa. Conditions: preliminary results. The source says: Another difficulty of using sodium nitrite as a toxicant is that feral hogs can sometimes vomit the baits. The acidic decomposition of sodium nitrite in gastric juices can lead to the release of noxious, gaseous by-products that can induce vomiting. This tendency can be counteracted by incorporating into the bait antiemetic compounds, antacid compounds, or both. Antacids include such compounds as sodium carbonate, sodium bicarbonate, calcium carbonate, magnesium hydroxide, magnesium carbonate, potassium carbonate, amines (e.g. from fish), and potassium bicarbonate. Antacids such as sodium carbonate also help maintain a higher pH level before the bait is consumed. Then after consumption the antacids can help neutralize gastric acid, both inhibiting the breakdown of sodium nitrite in vivo, and also helping to reduce vomiting. […] Anti-emetics can also be employed, for example taste-free ginger extracts containing gingerols. […] Gingerols have the same mechanism of action as drugs such as Zofran (ondansetron), which are prescribed in humans for the treatment of severe, chemotherapy-induced nausea. Other anti-emetics known in the art may also be used.

The conditions of series [2]: neutral or acidic pH; cited from earlier work.
In series [3] the test system is methemoglobin reductase (MR). Nature of the series: Inhibition of methemoglobin reductase (MR) by luteolin. It counts as biochemical. To be noted: assuming about 65 mL blood per kilogram body mass in the pig; no experimental data. An excerpt:
An optional embodiment enhances the effective of sodium nitrite by incorporating the flavonoid luteolin into a bait. Luteolin is found in botanical sources including celery, broccoli, green pepper, parsley, thyme, dandelion, perilla, chamomile, carrots, olive oil, peppermint, rosemary, oranges and other citrus, oregano, and certain palm seeds. The mechanism of sodium nitrite toxicity is to oxidize hemoglobin in the blood to methemoglobin, converting the iron atom from the ferrous form to the ferric form. Methemoglobin has a poor ability to transport oxygen to cells. Methemoglobin is naturally present in mammalian blood at 1-2% of total hemoglobin, a level that is ordinarily tempered by the enzyme methemoglobin reductase (MR). […] Because hogs have a poor ability to detoxify methemoglobin build-up, they are inherently more prone to developing high concentrations of methemoglobin upon exposure to sodium nitrite, which can quickly lead to death. In an optional embodiment, this physiology is further exploited by incorporating MR inhibitors into the bait, thus facilitating control of feral hogs while releasing less total nitrite into the environment. Luteolin is a highly-potent, commercially-available, naturally-occurring, tasteless MR inhibitor. Adding small amounts of luteolin to a nitrite-containing bait will reduce a hog's ability to detoxify methemoglobin. […]

The target in series [4] is methemoglobin reductase (MR). Conditions: MR inhibitor; cited from earlier work.
For series [5], the system named is adult hogs. Conditions: cited from earlier work.

One may read the IC50 as the concentration needed to halve the response being measured.

On to `O=C([O-])[O-].[Na+].[Na+]` [sodium carbonate], for which, in series [1], the “effect on vomiting after toxicant baits are consumed” value is reported as “effective in reducing vomiting”.

With `O=c1cc(-c2ccc(O)c(O)c2)oc2cc(O)cc(O)c12` [luteolin], the water solubility result in series [2] was “poorly soluble”. Besides, in series [3], the “amount of luteolin needed for 50% inhibition of the MR enzyme” value is ~2 micrograms per kilogram body mass. Moreover, in series [4], the IC50 was approximately 0.11 µM.

Turning to `O=NO` [sodium nitrite], in series [5], the LD90 entry is given as “about 189 mg/kg”.

These data come from US11992013B2, “Feral hog toxicant” (priority 2019, dated 2024).
